Source: patent US12121552B2, “Pseudomonas chlororaphis species and its use in the control of fish diseases caused by bacteria and fungi” (T3 Bioscience, Inc., priority 2022, dated 2024)
Converted amounts (≈) assume the structure as drawn.

How the values were obtained:
Experiment in all cases: MIC/MLC broth dilution assay against fish pathogens
Format in all cases: cell-based
[1] = test system: Flavobacterium columnare; details: TYES/20° C./2 days, read-out: Minimum Inhibitory Concentration
[2] = test system: Tenacibaculum maritimum; details: (MA/MB)/15° C./8 days
[3] = test system: Piscirickettsia salmonis; details: L15/15° C./21 days, read-out: Minimum Inhibitory Concentration
[4] = test system: Streptococcus iniae; details: (TSAY/TSBY)/28° C./48 h; for MIC: Streptococcus iniae, read-out: Minimum Inhibitory Concentration
[5] = test system: Streptococcus agalactiae; details: (TSAY/TSBY)/28° C./48 h; for MIC: Streptococcus agalactiae, read-out: Minimum Inhibitory Concentration
[6] = test system: Renibacterium salmoninarum; details: KDM-2/15° C./14 days, read-out: Minimum Inhibitory Concentration
[7] = test system: Vibrio parahaemolyticus; details: (TSA2/TSB2)/37° C./24 h, read-out: Minimum Inhibitory Concentration
[8] = test system: Aeromonas salmonicida; details: (TSA/TSB)/20° C./24 h, read-out: Minimum Inhibitory Concentration

SMILES | MIC [1] | Minimum Lethal Concentration [2] | MIC ([2]; Tenacibaculum maritimum, read-out: Minimum Inhibitory Concentration) | MIC [3] | MIC [4] | MIC [5] | MIC [6] | MIC [7] | MIC [8] | Minimum Lethal Concentration [4] | Minimum Lethal Concentration [5]
CCCCCCc1c(O)cc(CCCCC)cc1O (single isomer, unassigned) [Peak 2] | 0.5 µg/mL (≈ 1.89 µM) | 200 µg/mL | 3.13 µg/mL (≈ 11.8 µM) | 12.5 µg/mL (≈ 47.3 µM) | 0.39 µg/mL (≈ 1.47 µM) | 6.25 µg/mL (≈ 23.6 µM) | 50 µg/mL (≈ 189 µM) |  |  |  | 
CCCCCCCc1cc(O)c(CCCCCC)c(O)c1 (single isomer, unassigned) [Peak 3] | 0.39 µg/mL (≈ 1.33 µM) |  |  | 12.5 µg/mL (≈ 42.7 µM) | 0.39 µg/mL (≈ 1.33 µM) | 6.25 µg/mL (≈ 21.4 µM) | 50 µg/mL (≈ 171 µM) | 1.56 µg/mL (≈ 5.33 µM) | 100 µg/mL (≈ 342 µM) | 25 µg/mL | 50 µg/mL
